Assay results reported in the supplement of paper PMC4862054.
Where “and” joins values, the source holds several entries; their conditions need not be identical. Equal values may be shown once.

Legend:
Settings in all cases: incubation time: 72 h
DU-4475 [1] = assay: drug sensitivity score (DSS), CellTiter-Glo (DSS (AUC-based score)); higher = stronger drug effect (viability inhibition or cytotoxicity); extreme values may be limits of the assay
Outline: (§1)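 The area under the fitted dose-response curve was used to calculate the drug sensitivity score. Cells from breast cancer lines were incubated for 72 h in 384-well plates with compound at 5 concentrations spaced 10-fold over a 10,000-fold range specific to each compound. Plates were read for CellTox Green and then CellTiter-Glo, and normalised to 0.1 % DMSO and a positive kill control.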

HCC1143 = assay: as above
Outline: as §1

MFM-223 = assay: normalised viability (% of control), CellTiter-Blue; higher = more viable cells (about 100 = DMSO control)
Experimental: (§2)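 DSRT, CellTiter-Blue viability, 72 h incubation. Signal is normalised to DMSO and benzethonium chloride controls. Value is the normalised response at dose 3.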

MDA-MB-453 = assay: as above
Experimental: as §2

MDA-MB-231 = assay: as above
Experimental: as §2

SK-BR-3 = assay: as above
Experimental: as §2

BT-549 = assay: as above
Experimental: as §2

DU-4475 [2] = assay: as above
Experimental: as §2

CAL-85-1 = assay: as above
Experimental: as §2

HCC1937 = assay: as above
Experimental: as §2

BT-474 = assay: as above
Experimental: as §2

MDA-MB-436 = assay: as above
Experimental: as §2

MDA-MB-468 = assay: as above
Experimental: as §2

HDQ-P1 = assay: as above
Experimental: as §2

CAL-120 = assay: as above
Experimental: as §2

Hs578T = assay: as above
Experimental: as §2

HCC1599 = assay: as above
Experimental: as §2

CAL-51 = assay: as above
Experimental: as §2

CAL-148 = assay: as above
Experimental: as §2

Nc1cccc2c1CN(C1CCC(=O)NC1=O)C2=O (configuration not stated) [Lenalidomide]
drug sensitivity score (DU-4475 [1]): 0 | drug sensitivity score (HCC1143): 0 | normalised viability (MFM-223; 100 nM): 91.3% and 90.2% | normalised viability (MDA-MB-453; 10 nM): 93% and 103% | normalised viability (MDA-MB-231; 100 nM): 88.9% and 87.4% | normalised viability (SK-BR-3; 100 nM): 73.6% and 88.2% | normalised viability (BT-549; 100 nM): 92.2% and 101% | normalised viability (DU-4475 [2]; 10 nM): 103% and 112% | normalised viability (CAL-85-1; 10 nM): 88.2% and 90.5% | normalised viability (HCC1937; 100 nM): 92.2% and 102% | normalised viability (BT-474; 100 nM): 115% and 94.3% | normalised viability (MDA-MB-436; 100 nM): 80% and 93.4% | normalised viability (MDA-MB-468; 100 nM): 100% and 94.2% | normalised viability (HDQ-P1; 10 nM): 101% and 93.8% | normalised viability (CAL-120; 100 nM): 71.4% and 84.9% | normalised viability (Hs578T; 100 nM): 85.7% and 86.3% | normalised viability (HCC1599; 100 nM): 117% and 96.9% | normalised viability (CAL-51; 10 nM): 106% and 104% | normalised viability (CAL-148; 10 nM): 88% and 92.2%

C[C@]12O[C@H](C[C@]1(O)CO)n1c3ccccc3c3c4c(c5c6ccccc6n2c5c31)CNC4=O [Lestaurtinib]
drug sensitivity score (DU-4475 [1]): 8.11 | drug sensitivity score (HCC1143): 2.04 | normalised viability (MFM-223; 10 nM): 107% | normalised viability (MDA-MB-453; 1 nM): 98.7% | normalised viability (MDA-MB-231; 10 nM): 110% | normalised viability (SK-BR-3; 10 nM): 91.3% | normalised viability (BT-549; 10 nM): 106% | normalised viability (DU-4475 [2]; 1 nM): 109% | normalised viability (CAL-85-1; 1 nM): 99.7% | normalised viability (HCC1937; 10 nM): 79.5% | normalised viability (BT-474; 10 nM): 127% | normalised viability (MDA-MB-436; 10 nM): 103% | normalised viability (MDA-MB-468; 10 nM): 92.9% | normalised viability (HDQ-P1; 1 nM): 113% | normalised viability (CAL-120; 10 nM): 103% | normalised viability (Hs578T; 10 nM): 83% | normalised viability (HCC1599; 10 nM): 102% | normalised viability (CAL-51; 1 nM): 115% | normalised viability (CAL-148; 1 nM): 101%

O=C1c2c(O)ccc(O)c2C(=O)c2c(NCCNCCO)ccc(NCCNCCO)c21 [Mitoxantrone]
drug sensitivity score (DU-4475 [1]): 2.92 | drug sensitivity score (HCC1143): 0.675 | normalised viability (MFM-223; 10 nM): 85.9% | normalised viability (MDA-MB-453; 1 nM): 84.8% | normalised viability (MDA-MB-231; 10 nM): 72.5% | normalised viability (SK-BR-3; 10 nM): 75.6% | normalised viability (BT-549; 10 nM): 87.7% | normalised viability (DU-4475 [2]; 1 nM): 102% | normalised viability (CAL-85-1; 1 nM): 95.1% | normalised viability (HCC1937; 10 nM): 46.6% | normalised viability (BT-474; 10 nM): 98.2% | normalised viability (MDA-MB-436; 10 nM): 99.6% | normalised viability (MDA-MB-468; 10 nM): 80.4% | normalised viability (HDQ-P1; 1 nM): 95% | normalised viability (CAL-120; 10 nM): 67.4% | normalised viability (Hs578T; 10 nM): 71.8% | normalised viability (HCC1599; 10 nM): 108% | normalised viability (CAL-51; 1 nM): 104% | normalised viability (CAL-148; 1 nM): 94.3%
